Experimental data reported in patent US20220380341A1, “INHIBITORS OF HIV-1 NEF FOR THE TREATMENT OF HIV DISEASE” (priority 2018, published 2022).
Read-outs that look alike come from different tables or passages of the source.

Legend:
HIV-1 NefNL4-3 = HIV-1 NefNL4-3 (Human immunodeficiency virus type 1 group M subtype B, UniProt P03406, A33V/T15A/T51N/V11I); test: Surface plasmon resonance binding to recombinant full-length Nef (NL4-3); conditions: for RU30/RUNef (extent of binding): response units at 30 μM relative to Nef immobilized on the SPR chip
TZM-bl cell line = type: cell-based; conditions: human, 1 μM
In short: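 Nef-dependent infectivity in TZM-bl cells: HIV-1NL4-3 infection with 1 μM compound, luciferase read at 48 h, normalized against DMSO wild-type and Nef-defective controls. Compound cytotoxicity in uninfected cells measured by Cell Titer Blue.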

uninfected PBMCs = type: cell-based; conditions: human
Experimental: FIG. 4. Inhibition of HIV-1 replication by compounds disclosed herein in PBMCs. Donor PBMCs were infected with HIV-1 in the presence of inhibitor concentrations ranging from 1 to 1,000 nM or the DMSO carrier solvent as a negative control (0.1% DMSO final). Replication was assessed by p24 Gag AlphaLISA (Perkin Elmer) […]. Each donor was also infected with Nef-defective HIV-1 to establish the baseline for Nef-dependent enhancement of replication in each culture. Cytotoxicity was assessed in uninfected PBMCs over the same incubation period using the CellTiter-Blue assay (Promega). Data were fit by non-linear regression analysis (GraphPad Prism v.7.04) to determine the IC50 and CC50 values shown.
Non-HLA-typed buffy coats (Source: Pittsburgh Central Blood Bank, #E3755) are received and processed within 24 hours of blood donation. PBMCs are isolated via rocking for RBC separation following 1:1 dilution with PBS, followed by Ficoll gradient centrifugation. The lymphocyte fraction is removed and washed several times for a final concentration of ˜150-300×10^6 cells per donor. Cells are activated for 3 days with 1-5 μg/mL PHA (Sigma) and 50 U/mL IL-2. Cells are plated at 750,000 cells/ml and viability is checked at day 3 using the Cell Titer Blue assay (Promega). If cells are >90% viable, then they are infected with HIV-1 NL4-3, wild-type or Δ-Nef mutant (input typically 30-500 pg/mL p24 capsid equivalents) in the presence or absence of Nef inhibitor analogs. IL-2 is included in the media at the time of infection. After 4 days, cells are lysed with 1% Triton X-100 for 1.5 h, checked for viability via Cell Titer Blue, and frozen/stored at −20° C. HIV-1 replication is assessed with a high-sensitivity HIV-1 p24 AlphaLISA assay (Perkin Elmer) in ½-volume 96-well plates, using one-half of the recommended assay volumes for all reagents (including samples). Assays are read on the BioTek Cytation5 instrument; readout is in AlphaUnits and replication in p24 pg/mL is determined using an HIV-1 p24 capsid protein standard included in the Alpha kit.

HIV-1NL4-3 = test: HIV-1 infectivity assay in TZM-bl reporter cell line (LTR-luciferase, 48 h); type: cell-based; conditions: for inhibition at 1 µM: Human immunodeficiency virus 1, TZM-bl
In short: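 Percent inhibition of HIV-1NL4-3 infectivity at 1 μM compound, from luciferase output of TZM-bl cells 48 h after infection. Scale anchors are DMSO-treated wild-type infection as zero and DMSO-treated Nef-defective infection as full Nef-dependent effect.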

HIV-1 NL4-3 = test: HIV-1 replication in normal donor PBMCs (p24 Gag AlphaLISA); type: cell-based; conditions: Table 1, 4 days, words (Not active, Borderline) where no bound is given
In short: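 PHA/IL-2-activated donor PBMCs infected with HIV-1 NL4-3, wild-type or Δ-Nef, with inhibitor (1–1,000 nM, 0.1% DMSO) in IL-2 medium. Lysates taken after 4 days and p24 quantified by AlphaLISA against a p24 standard; IC50 by non-linear regression, CC50 by CellTiter-Blue in uninfected cells.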

HIV-1 Nef SF2 = target: T1, HIV-1 Nef SF2 (Human immunodeficiency virus type 1 group M subtype B, UniProt P03407); test: biochemical; type: binding; conditions: two-step induced-fit model, Reichert SPR, read-out: Reichert SPR Nef SF2 (M) two-step fitting
T1 construct: made in house

[1] = target: Nef from SIV (strain mac239) (Simian immunodeficiency virus, UniProt Q5QGG3); test: biochemical
Experimental: Also shown are SPR data recorded on a Reichert 4-channel SPR instrument. […] Recombinant Nef is immobilized on the biosensor surface, and each compound is injected and association/dissociation kinetics are recorded. The resulting data for the 3 isoforms are each best-fit using both a two-site model and a two-step, induced-fit model. Dissociation constants (KD), calculated from the kinetic association and dissociation constants from all three isoforms, are shown in columns 6-7. Data were fit using three regimes and the resulting KD: from each model are shown in the Table: 1:1 Langmuir fit; 2-site fit, which yields low and high affinity components; and a 2-step induced fit model.

[2] = KD, M, Table 4, SPR fit 1:1 Langmuir, KD = koff/kon
[3] = Table 4, 1:1 Langmuir fit, T = 1/koff
[4] = 1.0 μM, TZM-bl reporter cell line, Table 4, read-out: % Infectivity Inhibition
[5] = 48 h, Table 1, TZM-bl cells, 1 μM, 48 h, 100% = Nef-defective HIV-1, read-out: HIV-1 Infectivity % Inhibition Norm. to Δ-Nef @ 1 μM
[6] = KD, M, Table 4, SPR fit 2-step induced fit, KD = koff/kon × koff2/(koff2 + kon2)

Row | SMILES | Kd (HIV-1 NefNL4-3) | Kd (HIV-1 NefNL4-3; [2]) | Nef NL4-3 Binding, SPR 1:1 or 2-site fitting KD1 (HIV-1 NefNL4-3; Table 1, 1:1 Langmuir fit where the KD2 cell says '1 to 1 fitting', else 2-site fit) | T, minutes (residence time) (HIV-1 NefNL4-3; [3]) | RU30/RUNef (extent of binding) (HIV-1 NefNL4-3) | % Cell Viability (TZM-bl cell line) | Toxicity in HIV Replication PBMC (Toxic @ concentration) (uninfected PBMCs) | inhibition at 1 µM (HIV-1NL4-3; [4]) | HIV Replication PBMC IC50 vs. HIV NL4-3 (HIV-1 NL4-3) | Percent Viability @ 1 μM (TZM-bl cells) (TZM-bl cell line) | inhibition at 1 µM (HIV-1NL4-3; [5]) | Kd (HIV-1 NefNL4-3; [6]) | T, minutes (residence time) (HIV-1 NefNL4-3; Table 4, 2-step induced fit, T = 1/koff2) | HIV-1 Infectivity % Inhibition Norm. to Δ-Nef @ 1 μM (HIV-1NL4-3; Table 1, TZM-bl cells, 1 μM, 48 h, 100% = Nef-defective HIV-1) | Kd (HIV-1 NefNL4-3; Nef NL4-3 Binding, SPR 1:1 or 2-site fitting KD2, Table 1, 2-site fit, second component) | Kd (HIV-1 NefNL4-3; Reichert SPR Nef NL43 (M) two-step fitting, KD, two-step induced-fit model, Reichert SPR, Table 3) | Toxicity % Viability @ 1 μM (TZM-bl) (TZM-bl cell line) | Kd (HIV-1 Nef SF2) | inhibition at 1 µM (HIV-1NL4-3; 1 μM, TZM-bl, normalized: DMSO wild-type HIV-1 = 0%, Nef-defective HIV-1 = 100%, read-out: HIV-1 Infectivity % Inhibition norm. to Δ-Nef @ 1 μM) | Kd [1]
1 | O=C(OCc1ccccc1)N1CCC(Cc2c(-c3ccc(C(F)(F)F)cc3)nn(-c3nc4ccccc4[nH]3)c2O)CC1 [Compound I-162, benzyl 4-{[1-(1H-1,3-benzodiazol-2-yl)-5-hydroxy-3-[4-(trifluoromethyl)phenyl]-1H-pyrazol-4-yl]methyl}piperidine-1-carboxylate] | 1.86e-09 M | 1.86e-09 M | No Interaction | 8.05E + 03 minutes | 4.69E- 03 | 90.8% | Toxic @ 1 μM | 77.5% | Not active | – | – | – | – | – | – | – | – | – | – | –
2 | O=C(OCc1ccccc1)N1CCC(c2nn(-c3nc4cccc(Cl)c4[nH]3)c(O)c2CCc2ccc(F)cc2)CC1 [Compound I-166, benzyl 4-[1-(7-chloro-1H-1,3-benzodiazol-2-yl)-4-[2-(4-fluorophenyl)ethyl]-5-hydroxy-1H-pyrazol-3-yl]piperidine-1-carboxylate] | 6.03e-09 M | 6.03e-09 M | – | 2.07E + 03 minutes | 4.21E- 03 | 97.0% | Toxic @ 1 μM | 24.6% | Not active | 97.0% | 24.6% | – | – | – | – | – | – | – | – | –
3 | CC(C)(C)OC(=O)N1CCC(CCc2c(-c3ccc(S(C)(=O)=O)cc3)nn(-c3nc4cc(Cl)ccc4[nH]3)c2O)CC1 [Compound I-215, tert-butyl 4-{2-[1-(5-chloro-1H-1,3-benzodiazol-2-yl)-5-hydroxy-3-(4-methanesulfonylphenyl)-1H-pyrazol-4-yl]ethyl}piperidine-1-carboxylate] | – | – | – | – | 1.00E- 02 | 74.5% | Toxic @ 1 μM | 53.5% | Not active | – | – | 1.62e-07 M | 5.87E + 01 minutes | 73.6% | – | – | – | – | – | –
4 | Oc1c(CCc2ccc(F)cc2)c(-c2ccc(C(F)(F)F)cc2)nn1-c1nc2cccnc2[nH]1 [Compound I-301, 4-[2-(4-fluorophenyl)ethyl]-1-{1H-imidazo[4,5-b]pyridin-2-yl}-3-[4-(trifluoromethyl)phenyl]-1H-pyrazol-5-ol] | – | – | – | – | 1.34E- 02 | 90.7% | Toxic @ 1 μM | 81.2% | – | – | – | 6e-11 M | – | – | 2.31e-05 M | 6e-11 M | 90.7% | 3.69e-08 M | 81.2% | 1.74 nM
5 | Oc1c(CCc2ccc(F)cc2)c(-c2ccc(C(F)(F)F)cc2)nn1-c1nc2ccncc2[nH]1 [Compound I-309, 4-[2-(4-fluorophenyl)ethyl]-1-{3H-imidazo[4,5-c]pyridin-2-yl}-3-[4-(trifluoromethyl)phenyl]-1H-pyrazol-5-ol] | 5.76e-10 M | 5.76e-10 M | – | 1.78E + 04 minutes | 1.59E- 03 | 99.1% | Toxic @ 1 μM | 92.2% | Not active | 99.1% | 92.2% | – | – | – | – | – | – | – | – | –
